Assay results reported in article PMC11801377, “A uniquely efficacious type of CFTR corrector with complementary mode of action” (Science Advances, 2024).

Columns and labels:
[1] = target: T1, F508del-CFTR (Homo sapiens, UniProt P13569, DEL508-508); test: Pharmacochaperone trafficking assay: F508del-CFTR cell surface expression in U2OS cells; format: cell-based; design: host or cells: U2OS (PathHunter U2OS-F508del-CFTR MEM-EA)
Experimental: This assay was adapted from the DiscoverX PathHunter pharmacochaperone trafficking assay, which is based on the enzyme fragment complementation technique. Briefly, the U2OS-F508del-CFTR cell line (DiscoveRx, #93-0987C3) is engineered to coexpress (i) human F508del-CFTR tagged with a Prolink (PK = short β-galactosidase fragment) and (ii) the remainder of the β-galactosidase enzyme [enzyme acceptor (EA)] localized to the PM. Incubation with compounds that increase trafficking of PK-tagged F508del-CFTR to the PM will lead to complementation of the EA fragment to form a functional β-galactosidase enzyme, which is quantified by a chemiluminescence reaction reporting cell surface CFTR expression. The same principle applies to the counterscreen using U2OS-ADRB2(W158A) cells (DiscoveRx, #93-0986C3). Freshly thawed U2OS-F508del-CFTR and U2OS-ADRB2(W158A) were seeded at 3500 or 5000 cells per well, respectively, in 20 μl per well of cell assay medium [McCoy (Life Technologies), 10% FBS, penicillin (100 U/ml), and streptomycin ([…])] in a 384 white low-volume plate (Corning). Predilutions of compounds in dimethyl sulfoxide (DMSO) were prepared in a 384-well polypropylene plate using an automated liquid-handling system. Dilution series were then transferred into cell assay medium in a polypropylene 384-well plate (Greiner) to obtain 5× concentrated aqueous working stocks. Five hours after cell seeding, 5× working stocks (5 μl per well) were added to the cells (20 μl per well) for an incubation overnight at 37°C. The next day, after 2 hours at room temperature, the cell plates were incubated with 10 μl of Flash detection reagent (#93-0247, DiscoverX) for 30 min, and chemiluminescence signals were detected with a microplate reader (Synergy MX, Agilent BioTek). Chemiluminescence data were normalized to the signal of basal vehicle-treated cells, and mean chemiluminescence values were converted to concentration-response curves for determination of EC50 and Emax values (GraphPad Prism).
Both above described cell lines [U2OS-F508del-CFTR and U2OS-ADRB2(W158A)] and assays were also used in the high-throughput screening campaign in which compounds were tested at 10 μM concentration with LUM (3 μM) or propranolol (100 nM) serving as 100% controls.

[2] = target: T2, MSD2-NBD2 fragment (M837-L1480-CFTR) (Homo sapiens, UniProt P13569); test: Truncated CFTR construct levels (immunoblotting), MSD2-NBD2 fragment; format: cell-based; settings: HEK-TREx cells, 40 hours; C4a 10 μM
T2 construct: expressed in transfected cells; host or cells: T-REx HEK293
T2 sequence (P13569 837-1480): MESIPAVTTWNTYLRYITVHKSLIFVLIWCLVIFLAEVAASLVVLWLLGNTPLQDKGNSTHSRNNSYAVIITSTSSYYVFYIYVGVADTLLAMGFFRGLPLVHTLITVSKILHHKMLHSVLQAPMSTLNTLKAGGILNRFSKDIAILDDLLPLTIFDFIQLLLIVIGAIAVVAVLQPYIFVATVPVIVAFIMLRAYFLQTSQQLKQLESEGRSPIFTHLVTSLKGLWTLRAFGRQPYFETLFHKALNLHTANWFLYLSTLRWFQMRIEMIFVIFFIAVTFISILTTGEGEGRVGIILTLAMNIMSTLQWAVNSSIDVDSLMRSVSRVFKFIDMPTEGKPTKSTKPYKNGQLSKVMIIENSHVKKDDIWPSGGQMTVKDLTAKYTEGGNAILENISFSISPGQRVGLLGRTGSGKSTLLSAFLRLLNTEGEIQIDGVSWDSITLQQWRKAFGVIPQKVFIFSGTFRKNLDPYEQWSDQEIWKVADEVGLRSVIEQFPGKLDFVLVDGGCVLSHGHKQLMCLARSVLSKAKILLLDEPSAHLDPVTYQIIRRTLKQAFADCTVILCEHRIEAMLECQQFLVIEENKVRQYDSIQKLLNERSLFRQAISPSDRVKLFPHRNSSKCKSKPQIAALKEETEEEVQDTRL
Excerpt: (§1) The human CFTR expressing HEK cell pools with the mutations described below were generated by integrase-mediated homologous recombination of the CFTR sequence into the T-REx HEK293 background (Thermo Fisher Scientific). This expression system allows the tetracycline-inducible expression of genes of interest from one defined insertion site. Parental T-REx-HEK293 cells were cultivated in growth medium: Dulbecco’s modified Eagle’s medium + GlutaMAX-I (#31966, Life Technologies), 10% dialyzed FBS (Gibco, #26400), penicillin (100 U/ml), streptomycin (100 μg/ml), hygromycin B (0.1 mg/ml; Life Technologies), blasticidin (5 μg/ml; Invitrogen, #R210-01), and 0.1 mM nonessential amino acid solution (Invitrogen, #11140-035). Recombinant T-REx-HEK-CFTR cells were generated by lipofectamine transfection (Life Technologies) of plasmids containing mutated versions of CFTR (RefSeq NM_000492) and then cultivated in selection medium [growth medium containing Geneticin (1 mg/ml) (Invitrogen, #10131-027) instead of hygromycin]. The plasmid constructs were synthetized by GENEART (Thermo Fisher Scientific) and designed with the WT CFTR intron 5 to 6 (880 nucleotides) to prevent leaky expression issues during the cloning process in bacteria. […]

[3] = test system: CFTR; design: method as in earlier work; settings: ref [27] (GLPG-2737); ref [21], [26], [27] (ELX); cited from earlier work
[4] = target: T1, F508del-CFTR; test: Halide-sensitive YFP quenching assay in U2OS-F508del-CFTR-YFP cells; format: cell-based; design: host or cells: U2OS (PathHunter U2OS-F508del-CFTR MEM-EA)
Experimental: U2OS-F508del-CFTR cells expressing Topaz-YFP F46L/H148Q/I152L were seeded at 20,000 cells per well into 384-well black clear-bottom plates in 40 μl per well growth medium (Mc COY’s 5A, Gibco, 10% FBS, penicillin/streptomycin), containing the various CFTR correctors at the indicated concentrations. The cells were coincubated with the compounds for 24 hours (37°C, 5% CO2). The next day, plates were washed twice with PBS^+ (55 μl per well; PBS containing 0.9 mM Ca^2+ and 0.5 mM Mg^2+). PBS^+ was fully removed, and cells were supplemented with 15 μl PBS^+. Then, 5 μl of 4× concentrated stocks of IVA or vehicle in dilution buffer [PBS^+, 0.1 μM forskolin, and 0.2% bovine serum albumin (fatty acid free) (pH 7.4)] were added and incubated for 30 min in the dark. For experiments with I-172 (Sigma- Aldrich), the inhibitor was added to the mix with either IVA or vehicle to reach a final concentration in cells of 20 μM. Then, plates were transferred to the FLIPR Tetra (fluorescence imaging plate reader; Molecular Devices: excitation: 470 to 495 nm; emission: 526 to 585 nm), baseline fluorescence reading of the YFP signal was performed for 6 s (10 × 0.6 s intervals) after which 25 μl of iodide buffer [137 mM NaI, 2.7 mM KCl, 1.5 mM KH2PO4, 8.1 mM Na2HPO4, 1 mM CaCl2, and 0.5 mM MgCl2 (pH 7.4)] was added, and fluorescence reading was continued for 70 s (50 × 0.6 s intervals; 20 x 2 s intervals) to assess YFP quenching through CFTR-mediated iodide influx. For analysis, fluorescence traces were aligned and normalized at the last time point before iodide addition (normalized fluorescence = 1). Normalized fluorescence values obtained 20 s after the beginning of the assay were used to assess the degree of YFP quenching, i.e., CFTR function (see fig. S1J). […] Then, plates were read and analyzed as above. […] Then, plates were transferred to the FLIPR Tetra and read and analyzed as above.

[5] = test system: F508del.L15W-CFTR; test: Site-directed mutagenesis immunoblotting, HEK-TREx, F508del.L15W-CFTR; format: cell-based, human; settings: 40 h, 2 μM
Excerpt: as §1

[6] = test system: F508del.K14A-CFTR; test: Site-directed mutagenesis immunoblotting, HEK-TREx, F508del.K14A-CFTR; format: cell-based, human; settings: 40 h, 2 μM
Excerpt: as §1

[7] = U2OS cells, overnight treatment

T1 sequence (P13569 with tags, fused parts or gaps DEL508-508): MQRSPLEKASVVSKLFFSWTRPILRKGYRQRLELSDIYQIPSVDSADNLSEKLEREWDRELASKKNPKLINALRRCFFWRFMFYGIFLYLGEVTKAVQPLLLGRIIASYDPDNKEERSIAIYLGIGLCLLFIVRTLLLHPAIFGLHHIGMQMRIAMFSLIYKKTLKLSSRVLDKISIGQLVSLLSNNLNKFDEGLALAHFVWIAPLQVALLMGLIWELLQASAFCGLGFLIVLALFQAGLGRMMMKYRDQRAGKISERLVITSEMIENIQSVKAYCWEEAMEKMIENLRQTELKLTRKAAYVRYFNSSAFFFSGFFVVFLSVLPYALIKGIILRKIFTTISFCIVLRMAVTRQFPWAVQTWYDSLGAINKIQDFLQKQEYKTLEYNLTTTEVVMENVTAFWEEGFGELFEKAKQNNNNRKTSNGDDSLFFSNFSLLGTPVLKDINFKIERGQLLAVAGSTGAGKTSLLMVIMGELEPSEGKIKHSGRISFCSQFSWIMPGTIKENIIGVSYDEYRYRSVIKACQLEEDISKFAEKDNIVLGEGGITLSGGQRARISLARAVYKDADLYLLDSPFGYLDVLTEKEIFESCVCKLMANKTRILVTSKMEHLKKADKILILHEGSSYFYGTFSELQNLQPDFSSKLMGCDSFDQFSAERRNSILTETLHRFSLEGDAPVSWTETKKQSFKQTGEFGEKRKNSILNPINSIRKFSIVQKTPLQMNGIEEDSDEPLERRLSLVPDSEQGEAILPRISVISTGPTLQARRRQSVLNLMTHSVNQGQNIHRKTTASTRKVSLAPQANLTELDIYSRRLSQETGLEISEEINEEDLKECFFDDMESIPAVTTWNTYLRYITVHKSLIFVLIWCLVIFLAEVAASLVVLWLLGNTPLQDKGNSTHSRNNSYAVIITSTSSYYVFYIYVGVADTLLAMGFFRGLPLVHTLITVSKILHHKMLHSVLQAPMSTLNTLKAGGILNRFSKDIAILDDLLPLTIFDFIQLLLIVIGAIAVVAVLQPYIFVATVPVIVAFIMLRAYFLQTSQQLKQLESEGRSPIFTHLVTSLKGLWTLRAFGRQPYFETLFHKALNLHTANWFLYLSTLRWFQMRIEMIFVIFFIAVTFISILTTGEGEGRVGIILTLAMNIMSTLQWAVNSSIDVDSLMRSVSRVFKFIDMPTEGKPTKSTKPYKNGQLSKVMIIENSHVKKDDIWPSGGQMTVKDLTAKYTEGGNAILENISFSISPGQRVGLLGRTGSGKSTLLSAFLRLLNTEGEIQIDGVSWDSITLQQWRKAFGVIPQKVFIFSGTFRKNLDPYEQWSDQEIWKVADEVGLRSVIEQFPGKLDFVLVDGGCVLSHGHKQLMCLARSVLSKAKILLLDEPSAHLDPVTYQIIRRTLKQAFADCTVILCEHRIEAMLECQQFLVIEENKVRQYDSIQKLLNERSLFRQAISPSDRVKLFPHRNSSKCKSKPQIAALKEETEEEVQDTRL

C[C@@H]1CN(c2nc(-n3ccc(OCCC4(C(F)(F)F)CC4)n3)ccc2C(=O)NS(=O)(=O)c2ccccc2)C(C)(C)C1 [BAM, bamocaftor]
maximal F508del-CFTR surface expression (Emax) [1, 7]: seven- to ninefold

COc1ccc(Cl)cc1Nc1nc(-c2sc(NC(=O)c3ccccc3)nc2C)cs1 [C4a, corrector 4a]
expression of the MSD2-NBD2 fragment [2]: increased the expression of its glycosylated and nonglycosylated forms
maximal F508del-CFTR surface expression (Emax) [1, 7]: four- to fivefold
additivity in F508del-CFTR surface expression ([1]; applied on top of / titrated onto IDOR-4): full additivity or even synergy

O=C(O)c1ccc([C@H]2C[C@@H](NC(=O)C3(c4ccc5c(c4)OC(F)(F)O5)CC3)c3ccc(OC(F)F)cc3O2)cc1 [GAL, galicaftor]
maximal F508del-CFTR surface expression (Emax) [1, 7]: four- to fivefold

COC1CCN(C2CCN(c3cc(C(=O)NS(=O)(=O)N(C)C)nc4c3c(C3CCC3)nn4-c3ccc(F)cc3)CC2)CC1 [GLPG-2737]
acute effect on CFTR currents [3]: acute inhibitory

O=C(O)c1ccc(/C=C2\SC(=S)N(c3cccc(C(F)(F)F)c3)C2=O)cc1 [I-172]
effect on corrector-induced YFP quenching responses ([4]; I-172 20 μM): blocked

CC(C)CC1C(=O)N(C)CC(=O)NC(Cc2ccccc2)COc2ccccc2C(=O)NC(C(=O)NCCc2ccccc2)CC(=O)N1C (stereo not drawn) [IDOR-0]
EC50 [1, 7]: 1600 nM
maximal F508del-CFTR surface expression (Emax) [1, 7]: 3 fold over baseline

COc1nc(C)cc2c1C(=O)NC(C(=O)NCCc1cccc(N=[N+]=[N-])c1)CC(=O)N(C)C(CC(C)C)C(=O)N(C)C(CC1CCCC1)C(=O)NC(Cc1ccccc1)CO2 (stereo not drawn) [IDOR-6A]
correction by macrocycles versus [LUM + BAM] [5]: little difference
weaker correction by macrocycles as compared to [LUM + BAM] [6]: two- to fourfold

CC(C)(C)c1cc(C(C)(C)C)c(NC(=O)c2c[nH]c3ccccc3c2=O)cc1O [IVA, ivacaftor]
EC80 of potentiator ([4]; concentration used as ~EC80): ~2 nM
